Like-named read-outs stand apart in the source and are kept apart here.
System: in vitro model of the blood brain barrier (brain capillary endothelial cells co-cultured with glial cells)
Experiment: In vitro BBB model: passage of p97 tryptic digest peptides, LC-MS/MS peak areas in luminal and abluminal compartments
Assay type: in vitro ADME, rat
Method: Experiments were performed to evaluate the passage of mixtures of p97 peptide fragments across the blood-brain barrier (BBB) using a relevant and predictive BBB in vitro model (see Cecchelli et al., Adv. Drug Deliv. Rev. 36:165-178, 1999). The model utilizes brain capillary endothelial cells co-cultured with glial cells, to closely mimic the in vivo BBB (see Lundquist et al., Pharm. Res. 16:976-981, 2002).
To provide an in vitro system for studying brain capillary functions, a process of co-culture that closely mimics the in vivo BBB was established by culturing brain capillary endothelial cells on one side of a filter and supportive glial cells on the other side. Specifically, endothelial cells were cultured in the upper compartment on the filter and glial cells in the lower compartment on the plastic of a six-wells plate (see FIGS. 7 and 8). Under these conditions, endothelial cells retain the appropriate endothelial markers (e.g., factor VIII—related antigen, non-thrombogenic surface, production of prostacyclin, angiotensin-converting enzyme activity), and also retain the relevant characteristics of the BBB (e.g., presence of tight junctions, paucity of pinocytotic vesicles, monoamine oxidase activity, γ-glutamyltranspeptidase activity, P-glycoprotein activity, specific receptors for low density lipoproteins, and transferrin).
After removing the meninges, the brain tissue was forced gently through a nylon sieve. DMEM (Dulbecco's modified Eagle medium) supplemented with 10% (v/v) fetal calf serum (FCS, same as Fetal Bovine Serum: FBS), 2 mM glutamine, and 50 μg·ml^−1 of gentamycin was used for the dissociation of cerebral tissue and development of glial cells. […]
The glial cells were plated at a concentration of about 1.25×10^5 cells/ml in plastic six-well plates and incubated at 37° C. with 5% CO2. The medium was changed twice a week. […] Then, sub-clones of endothelial cells frozen at passage 3 were cultured on a 60-mm-diameter gelatin-coated Petri dish. Confluent endothelial cells were trypsinized and plated on the upper side of the filters at a density of 4×10^5 cells/ml. The medium used for the co-culture was DMEM supplemented with 10% (v/v) calf serum (CS) and 10% (v/v) horse serum (HS), 2 mM glutamine, and 50 μg/ml of gentamycin, and 1 ng/ml of basic fibroblast growth factor was added every other day.
On the day of the experiments, Ringer-HEPES (NaCl, 150 mM; KCl, 5.2 mM; CaCl2, 2.2 mM; MgCl2 6H20, 0.2 mM; NaHCO3, 6 mM; HEPES, 5 mM; glucose, 2.8 mM) was added to the lower compartment (abluminal side) of a six-well plate (3 mL per well). Filters with or without endothelial cells were washed with the Ringer-HEPES solution for 10 minutes at 37° C. to minimize traces of serum, and were then transferred to each well of the six-well plate. A volume of 1 mL Ringer-HEPES solution containing the peptide fragments in combination with Lucifer Yellow (20 μM) was placed in the upper compartment (luminal side) of the well.
Experiments were performed in triplicate with filters containing a confluent monolayer of endothelial cells (for BBB integrity testing or evaluation of peptide fragment passage), or in triplicate with empty filters coated only with collagen (filter test). Incubations were performed on a rocking platform for 120 minutes at 37° C.

[1] = tryptic peptides, abluminal compartment, 120 minutes, 3 micron pore size, LC-MS/MS peak area
[2] = tryptic peptides, abluminal compartment, 120 minutes, 4 micron pore size, LC-MS/MS peak area
[3] = tryptic peptides, luminal compartment, 120 minutes, 3 micron pore size, LC-MS/MS peak area
[4] = tryptic peptides, luminal compartment, 120 minutes, 4 micron pore size, LC-MS/MS peak area
[5] = tryptic peptides, abluminal/luminal peak area ratio at 120 minutes, 0.4 um insert
[6] = tryptic peptides, abluminal/luminal peak area ratio at 120 minutes, 3.0 um insert

Substance: ADTDGGLIFR (listed as Homo sapiens) [tryptic peptide fragment of human p97]
- Abl 120/Lum120 peak area ratio, 0.4 um insert: 1.95
- Abl 120/Lum120 peak area ratio, 3.0 um insert: 1.44

Substance: ADTDGGLIFRLLNEGQR [tryptic peptide fragment of human p97]
- Ablum 120: Area [1]: 0.00E+00
- Ablum 120: Area [2]: 5.53E+06
- Lum 120: Area [3]: 3.69E+07
- Lum 120: Area [4]: 3.36E+07

Substance: ADVTEWR (listed as Homo sapiens) [tryptic peptide fragment of human p97]
- Abl 120/Lum120 peak area ratio, 0.4 um insert: 12.76
- Abl 120/Lum120 peak area ratio, 3.0 um insert: 11.26

Substance: ADVTEWRQCHLAR (listed as Homo sapiens) [tryptic peptide fragment of human p97]
- Ablum 120: Area: 4.26E+06
- Lum 120: Area: 0.00E+00

Substance: AQDLFGDDHNKNGFK [tryptic peptide fragment of human p97]
- Abl 120/Lum120 peak area ratio, 0.4 um insert [5]: 5.45
- Abl 120/Lum120 peak area ratio, 3.0 um insert [6]: 1.68

Substance: AVPVGEKTTYR (listed as Homo sapiens) [tryptic peptide fragment of human p97]
- Ablum 120: Area: 0.00E+00
- Lum 120: Area: 0.00E+00

Substance: AVSDYFGGSCVPGAGETSYSESLCR [tryptic peptide fragment of human p97]
- Ablum 120: Area [1]: 5.49E+08
- Ablum 120: Area [2]: 7.98E+08
- Lum 120: Area [3]: 5.51E+09
- Lum 120: Area [4]: 5.03E+09

Substance: CGDMAVAFR (listed as Homo sapiens) [tryptic peptide fragment of human p97]
- Abl 120/Lum120 peak area ratio, 0.4 um insert: 2.26
- Abl 120/Lum120 peak area ratio, 3.0 um insert: 2.06

Substance: CGNMSEAFR (listed as Homo sapiens) [tryptic peptide fragment of human p97]
- Ablum 120: Area: 2.53E+07
- Lum 120: Area: 0.00E+00

Substance: CLVENAGDVAFVR (listed as Homo sapiens) [tryptic peptide fragment of human p97]
- Ablum 120: Area: 1.30E+08
- Lum 120: Area: 5.49E+08

Substance: CVGNSQERYYGYR (listed as Homo sapiens) [tryptic peptide fragment of human p97]
- Lum 120: Area: 0.00E+00

Substance: DLLFKDSTSELVPIATQTYEAWLGHEYLHAMK [tryptic peptide fragment of human p97]
- Ablum 120: Area [2]: 0.00E+00
- Lum 120: Area [4]: 3.76E+07

Substance: DSSHAFTLDELR (listed as Homo sapiens) [tryptic peptide fragment of human p97]
- Abl 120/Lum120 peak area ratio, 0.4 um insert: 0.98

Substance: DSSHAFTLDELRGK [tryptic peptide fragment of human p97]
- Ablum 120: Area [1]: 1.99E+07
- Ablum 120: Area [2]: 2.37E+07
- Lum 120: Area [3]: 0.00E+00
- Lum 120: Area [4]: 0.00E+00

Substance: EHGLKPVVGEVYDQEVGTSYYAVAVVRR [tryptic peptide fragment of human p97]
- Ablum 120: Area [1]: 1.70E+07
- Ablum 120: Area [2]: 2.62E+07
- Lum 120: Area [3]: 0.00E+00
- Lum 120: Area [4]: 0.00E+00

Substance: GDSSGEGVCDKSPLER [tryptic peptide fragment of human p97]
- Ablum 120: Area [1]: 1.93E+09
- Ablum 120: Area [2]: 2.34E+09
- Abl 120/Lum120 peak area ratio, 0.4 um insert [5]: 4.93
- Abl 120/Lum120 peak area ratio, 3.0 um insert [6]: 3.80
- Lum 120: Area [3]: 5.08E+08
- Lum 120: Area [4]: 4.75E+08

Substance: HSTVLENTDGK (listed as Homo sapiens) [tryptic peptide fragment of human p97]
- Ablum 120: Area: 0.00E+00

Substance: IQAEQVDAVTLSGEDIYTAGK [tryptic peptide fragment of human p97]
- Ablum 120: Area [1]: 0.00E+00
- Ablum 120: Area [2]: 0.00E+00
- Lum 120: Area [3]: 3.48E+06

Substance: LCRGDSSGEGVCDK [tryptic peptide fragment of human p97]
- Ablum 120: Area [1]: 2.64E+05
- Ablum 120: Area [2]: 5.97E+05
- Abl 120/Lum120 peak area ratio, 0.4 um insert [5]: 2.45
- Abl 120/Lum120 peak area ratio, 3.0 um insert [6]: 1.21
- Lum 120: Area [3]: 2.17E+05
- Lum 120: Area [4]: 2.44E+05

Substance: LKPEIQCVSAK (listed as Homo sapiens) [tryptic peptide fragment of human p97]
- Abl 120/Lum120 peak area ratio, 0.4 um insert: 4.81
- Abl 120/Lum120 peak area ratio, 3.0 um insert: 4.37

Substance: LLNEGQR (listed as Homo sapiens) [tryptic peptide fragment of human p97]
- Ablum 120: Area: 0.00E+00

Substance: MFDSSNYHGQDLLFKDATVR [tryptic peptide fragment of human p97]
- Ablum 120: Area [2]: 0.00E+00
- Lum 120: Area [4]: 0.00E+00

Substance: NYPSSLCALCVGDEQGR [tryptic peptide fragment of human p97]
- Ablum 120: Area [1]: 7.34E+07
- Ablum 120: Area [2]: 1.09E+08
- Lum 120: Area [3]: 6.15E+08
- Lum 120: Area [4]: 5.52E+08

Substance: RSSHVTIDTLK (listed as Homo sapiens) [tryptic peptide fragment of human p97]
- Abl 120/Lum120 peak area ratio, 0.4 um insert: 2.06
- Abl 120/Lum120 peak area ratio, 3.0 um insert: 1.23

Substance: SEDYELLCPNGAR (listed as Homo sapiens) [tryptic peptide fragment of human p97]
- Abl 120/Lum120 peak area ratio, 0.4 um insert: 13.05
- Abl 120/Lum120 peak area ratio, 3.0 um insert: 8.38

Substance: SSHVTIDTLKGVK (listed as Homo sapiens) [tryptic peptide fragment of human p97]
- Abl 120/Lum120 peak area ratio, 0.4 um insert: 2.42
- Abl 120/Lum120 peak area ratio, 3.0 um insert: 2.38

Substance: TVGWNVPVGYLVESGR [tryptic peptide fragment of human p97]
- Ablum 120: Area [1]: 0.00E+00
- Ablum 120: Area [2]: 1.38E+07
- Lum 120: Area [3]: 9.38E+07
- Lum 120: Area [4]: 1.01E+08

Substance: VPAHAWVR
- Abl 120/Lum120 peak area ratio, 0.4 um insert: 3.32
- Abl 120/Lum120 peak area ratio, 3.0 um insert: 3.56

Substance: WCATSDPEQHK (listed as Homo sapiens) [tryptic peptide fragment of human p97]
- Abl 120/Lum120 peak area ratio, 0.4 um insert: 8.92
- Abl 120/Lum120 peak area ratio, 3.0 um insert: 7.41

Substance: WCVLSTPEIQK (listed as Homo sapiens) [tryptic peptide fragment of human p97]
- Lum 120: Area: 0.00E+00

Substance: YYDYSGAFR (listed as Homo sapiens) [tryptic peptide fragment of human p97]
- Abl 120/Lum120 peak area ratio, 0.4 um insert: 7.40
